Data reported in patent EP4711366A1, “PYRIMIDO MACROHETEROCYCLIC COMPOUND AS WEE1-YES DUAL-TARGET INHIBITOR AND USE THEREOF” (Mindrank AI Ltd., priority 2023, dated 2024).
Blank lines part the entries; values can stand above or below the compound they belong to.

What was measured:
[1] = test system: A427 human lung cancer cells; test: In vivo efficacy study against A427 tumors (subcutaneous tumor-bearing model); parameters: species or system BALB/c nude mice; conditions: for Relative tumor inhibition rate (%) Day 28 / Relative tumor volume Day 28: PO
Text: A427 human lung cancer cells were subcultured and expanded in an MEM culture medium containing 10% FBS. BALB/c nude mice aged 6-8 weeks were taken and each subcutaneously injected with 5 × 10^6 cells to establish a tumor-bearing model. The tumor volume was monitored, and when the tumor volume reached about 150 mm^3, the animals were randomized into 5 groups according to body weight and tumor volume. The animals were given, by oral gavage, the vehicle or compounds to be tested (ZN-c3 and IE) once daily for a total of 28 days. During the period of administration, the tumor volume and the animal body weight were measured twice a week, and the animals' states were observed daily. At the endpoint, the animals were euthanized with carbon dioxide, and the subcutaneous tumors were isolated and weighed.
(§1) The data calculation formulae are shown below: The tumor volume (TV) was calculated using the formula 1/2×axb^2, where a and b represent the length and width measurements of the tumor, respectively.
(§2) The tumor growth inhibition rate (%TGITV) was calculated using the formula (1 - TVT/TVC) × 100%, where TVc represents the average tumor volume of the negative control group, and TVT represents the average tumor volume of the treatment group.
(§3) The relative tumor volume (RTV) was calculated using the formula Vt/V0, where V0 represents the tumor volume at the time of grouping, and Vt represents the tumor volume at each measurement.

Wee1 kinase = Wee1 kinase (Homo sapiens, UniProt P30291); test: WEE1 protein kinase inhibitory activity assay (ADP-GLO luminescence); type: biochemical; conditions: for IC50: Wee1 10 ng/well, ATP 10 µM, 3 h, 37 °C
Protocol: The influence of the compound MRANK-106 of the present disclosure on the kinase activity of Weel was assessed using an in vitro kinase reaction system.
Table 2-1. Information about reagents and consumables
① 1× kinase buffer: A 5× kinase buffer was diluted with ddH2O to make a 1× kinase buffer. Table 2-3. The reagent components added to the 1× kinase buffer
③ 5× enzyme working solution: The optimization of the enzyme concentration had been completed in previous work, and the concentration of the reagent used in the screening is shown in Table 2-4. A 5× enzyme working solution of the enzyme was formulated using the 1× kinase buffer.
④ Compound formulation: A 10 mM mother liquor was formulated using DMSO, aliquoted, and then stored at -20 °C. Immediately before use, the mother liquor was thawed, diluted with DMSO to 1 mM, serially diluted 4-fold to 10 concentration points, and then 40-fold diluted with the 1× kinase buffer to give a 2.5× working solution. Table 2-4. The experimental conditions for the kinase activity assay
After the above reagents were formulated and equilibrated to room temperature, 4 µL of the diluted solution of the compound to be tested and 2 µL of the formulated enzyme solution were added to reaction wells. After shaking and centrifugation, the plate was incubated at room temperature for 15 min, and 4 µL of the ATP solution was then added to start a kinase reaction. After 3 h of reaction at 37 °C, 10 µL of an ADP-GLO reagent was added. After thorough mixing, the mixture was left to react at room temperature for 40 min, and 20 µL of a detection reagent was then added. After 30 min of reaction at room temperature, the luminescence signals were detected using a SpectraMax L instrument. Two independent duplicate assays were performed. The inhibition rate of each well was calculated based on all activity wells and background signal wells, with an average calculated for duplicate wells. Meanwhile, the inhibition rate was plotted using the professional graphing and analysis software PRISM 9.0, and the IC50 was calculated.
The inhibition rates of the compounds to be tested against the kinase activity of Wee1 were calculated using the following formula: Inhibition rate% = (Lumvehicle−Lumcompound)/(Lumvehicle−Lumblank) × 100% [formula] • Lumcompound: the luminescence of the sample treatment groups • Lumvehicle: the luminescence of the solvent control group • Lumblank: the luminescence of the blank group

[2] = test system: Human colon cancer LoVo cells; test: In vivo efficacy study against LoVo tumors (subcutaneous tumor-bearing model); parameters: species or system BALB/c nude mice; conditions: for Relative tumor inhibition (%) Day 28 / Relative tumor volume Day 28: PO
Text: (§4) Human colon cancer LoVo cells were subcultured and expanded in an F12K culture medium containing 10% FBS. BALB/c nude mice aged 6-8 weeks were taken and each subcutaneously injected with 2 × 10^6 cells to establish a tumor-bearing model. The tumor volume was monitored, and when the tumor volume reached about 150 mm^3, the animals were randomized into 5 groups according to body weight and tumor volume. The animals were given, by oral gavage, the vehicle or compounds to be tested (ZN-c3 and IE) once daily for a total of 28 days. During the period of administration, the tumor volume and the animal body weight were measured twice a week, and the animals' states were observed daily. At the endpoint, the animals were euthanized with carbon dioxide, and the subcutaneous tumors were isolated and weighed.
as §1
The tumor growth inhibition rate (%TGITV) was calculated using the formula (1 - TVT/TVC) × 100%, where TVC represents the average tumor volume of the negative control group, and TVT represents the average tumor volume of the treatment group.
as §3

[3] = test system: Human ovarian cancer OVCAR-3 cells; test: In vivo efficacy study against OVCAR-3 tumors (subcutaneous tumor-bearing model); parameters: species or system BALB/c nude mice; conditions: for Relative tumor inhibition (%) Day 28 / Relative tumor volume Day 28: PO
Protocol: as §4, with “Human ovarian” for “Human colon”, “cancer OVCAR-3” for “cancer LoVo”, “an RPMI-1640” for “an F12K”, “containing 20% FBS and 0.01 mg/mL bovine insulin.” for “containing 10% FBS.”, “with 5” for “with 2”
as §1, §2, §3

Chain of Wee1 kinase (P30291 whole entry): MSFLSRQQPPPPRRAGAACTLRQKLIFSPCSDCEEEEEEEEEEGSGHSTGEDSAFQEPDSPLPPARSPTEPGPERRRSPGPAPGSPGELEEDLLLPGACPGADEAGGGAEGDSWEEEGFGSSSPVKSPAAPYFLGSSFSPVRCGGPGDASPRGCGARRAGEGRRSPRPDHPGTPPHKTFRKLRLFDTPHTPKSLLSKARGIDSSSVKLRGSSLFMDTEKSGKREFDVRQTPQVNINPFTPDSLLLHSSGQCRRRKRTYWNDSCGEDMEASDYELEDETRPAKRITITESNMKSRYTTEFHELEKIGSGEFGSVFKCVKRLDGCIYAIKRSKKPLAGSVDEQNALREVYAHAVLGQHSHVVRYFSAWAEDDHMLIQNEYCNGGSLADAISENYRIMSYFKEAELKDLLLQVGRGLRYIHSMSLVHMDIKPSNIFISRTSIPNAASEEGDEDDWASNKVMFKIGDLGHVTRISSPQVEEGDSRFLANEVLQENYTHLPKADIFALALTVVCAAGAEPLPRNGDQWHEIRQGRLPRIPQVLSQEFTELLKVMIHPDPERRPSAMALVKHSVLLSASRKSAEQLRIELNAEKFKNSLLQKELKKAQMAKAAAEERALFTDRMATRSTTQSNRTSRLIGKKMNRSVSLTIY

Compound: C=CCn1c(=O)c2cnc(Nc3ccc(N4CCN(C)CC4)cc3)nc2n1-c1ccc2c(n1)C(O)(CC)CC2 (stereo not drawn) [ZN-c3, reference compound]
Relative tumor inhibition rate (%) Day 28 ([1]; 30mg/kg, QD×28): 16.17%
Relative tumor volume Day 28 ([1]; 30mg/kg, QD×28): 5.03
Relative tumor inhibition rate (%) Day 28 ([1]; 80mg/kg, QD×28): 48.93%
Relative tumor volume Day 28 ([1]; 80mg/kg, QD×28): 3.12
IC50 (Wee1 kinase): 5.6 nM
Relative tumor inhibition (%) Day 28 ([2]; 80mg/kg, QD×28): 57.98%
Relative tumor volume Day 28 ([2]; 80mg/kg, QD×28): 2.41
Relative tumor inhibition (%) Day 28 ([3]; 100mg/kg, QD×28): 61.10%
Relative tumor volume Day 28 ([3]; 100mg/kg, QD×28): 2.01

IC50 (Wee1 kinase): 7.8 nM
inhibition of the Weel target (in words) (Wee1 kinase; summary statement on the assay results): strongly inhibited
Compound: Cc1cc(Nc2ncc3c(=O)n4n(c3n2)-c2cccc(n2)[C@](C)(O)CCC=CC4)ccc1OC1CCN(C)CC1 (stereo in doubt) [Compound IE, (R,Z)-12-hydroxy-12-methyl-2-((3-methyl-4-((1-methylpiperidin-4-yl)oxy)phenyl)amino)-7,10,11,12-tetrahydro-5H-13,17-(azeno)pyrimido[4',5':3,4]pyrazolo[1,2-a] [1,2]diazacyclotridecin-5-one]
Relative tumor inhibition rate (%) Day 28 ([1]; 30mg/kg, QD×28): 60.81%
Relative tumor volume Day 28 ([1]; 30mg/kg, QD×28): 2.41
Relative tumor inhibition rate (%) Day 28 ([1]; 80/60 mg/kg, QD × 28): 99.75%
Relative tumor volume Day 28 ([1]; 80/60 mg/kg, QD × 28): 0.02
activity in inhibiting tumor growth in the A427 tumor model compared with ZN-c3 ([1]; comparison in words): higher activity than the reference molecule ZN-c3
Relative tumor inhibition (%) Day 28 ([2]; 20 mg/kg, QD × 28): 60.90%
Relative tumor volume Day 28 ([2]; 20 mg/kg, QD × 28): 2.28
Relative tumor inhibition (%) Day 28 ([2]; 40 mg/kg, QD × 28): 89.12%
Relative tumor volume Day 28 ([2]; 40 mg/kg, QD × 28): 0.63
Relative tumor inhibition (%) Day 28 ([2]; 80mg/kg, QD×28): 97.12%
Relative tumor volume Day 28 ([2]; 80mg/kg, QD×28): 0.17
activity in inhibiting tumor growth in the LoVo tumor model compared with ZN-c3 ([2]; comparison in words): significantly better activity than ZN-c3
Relative tumor inhibition (%) Day 28 ([3]; 20 mg/kg, QD × 28): 40.51%
Relative tumor volume Day 28 ([3]; 20 mg/kg, QD × 28): 3.16
Relative tumor inhibition (%) Day 28 ([3]; 40 mg/kg, QD × 28): 81.11%
Relative tumor volume Day 28 ([3]; 40 mg/kg, QD × 28): 0.94
Relative tumor inhibition (%) Day 28 ([3]; 80/60 mg/kg, QD × 28): 92.69%
Relative tumor volume Day 28 ([3]; 80/60 mg/kg, QD × 28): 0.38
activity in inhibiting tumor growth in the OVCAR-3 tumor model compared with ZN-c3 ([3]; comparison in words): significantly better activity than ZN-c3
